Biological target: T1, BaCDA (Priestia aryabhattai, UniProt A0A7W3NGR0)
T1 construct: gene HNP21_005748
Test: biochemical
Conditions: read-out: Relative activity (%) / Ethylene glycol chitin

T1 sequence (A0A7W3NGR0 1-254): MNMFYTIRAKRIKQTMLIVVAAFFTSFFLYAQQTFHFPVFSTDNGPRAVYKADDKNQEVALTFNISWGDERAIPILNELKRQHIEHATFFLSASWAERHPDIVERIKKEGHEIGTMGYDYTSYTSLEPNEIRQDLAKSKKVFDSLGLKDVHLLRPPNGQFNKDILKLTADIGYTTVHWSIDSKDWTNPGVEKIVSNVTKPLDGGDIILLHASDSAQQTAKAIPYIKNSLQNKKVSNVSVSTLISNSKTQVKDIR

- activity at 10000 µM: 49.9 ± 3.89%
SMILES: CC(=O)O [acetate]

— paper PMC8636556, “Cloning, expression, purification and characterization of chitin deacetylase extremozyme from halophilic Bacillus aryabhattai B8W22” (3 Biotech, 2021)
